Converted amounts (≈) assume the structure as drawn.
How the values were obtained:
[1] = molecular target: T1, human glucocorticoid receptor (GR) (Homo sapiens, UniProt P04150); assay: Binding activity on human nuclear receptor GR ([3H]-dexamethasone competition); conditions: mean ± SD, n = 4
T1 sequence (P04150 1-777): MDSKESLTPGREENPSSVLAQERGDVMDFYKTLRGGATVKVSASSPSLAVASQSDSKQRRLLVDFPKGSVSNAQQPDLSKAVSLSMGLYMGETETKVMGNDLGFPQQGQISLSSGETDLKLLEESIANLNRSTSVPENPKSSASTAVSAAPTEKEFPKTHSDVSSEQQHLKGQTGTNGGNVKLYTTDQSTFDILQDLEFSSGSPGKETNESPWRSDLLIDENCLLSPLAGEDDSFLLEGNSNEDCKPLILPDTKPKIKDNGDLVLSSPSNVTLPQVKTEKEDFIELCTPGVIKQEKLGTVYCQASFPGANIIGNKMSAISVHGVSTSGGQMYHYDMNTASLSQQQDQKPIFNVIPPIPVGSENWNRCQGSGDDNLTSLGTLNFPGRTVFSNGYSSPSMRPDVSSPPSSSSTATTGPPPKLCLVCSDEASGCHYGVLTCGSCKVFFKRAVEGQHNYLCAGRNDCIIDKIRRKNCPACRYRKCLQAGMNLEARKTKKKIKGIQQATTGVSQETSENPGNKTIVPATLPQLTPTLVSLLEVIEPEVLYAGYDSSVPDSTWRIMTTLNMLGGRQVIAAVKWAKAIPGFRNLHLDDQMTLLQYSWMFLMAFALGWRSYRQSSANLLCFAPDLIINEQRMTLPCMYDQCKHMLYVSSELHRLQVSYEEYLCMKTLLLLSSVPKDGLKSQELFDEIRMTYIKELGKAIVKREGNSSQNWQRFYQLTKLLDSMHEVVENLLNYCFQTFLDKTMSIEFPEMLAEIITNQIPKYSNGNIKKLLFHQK
Description: Buffer solution is composed of 25 mM NaPO4, 20 mM NaMoO4, 10 mM KF and 10% glycerol (pH=7.3) and stored under 4° C. Stock solution is prepared with CHAPS and DTT and stored under −20° C. […] Add 2.5 μl/hole into 96-pore plate. Take out appropriate amount of buffer solution reserve into solution to make the final concentration of CHAPS and DDT to become 0.25 mM and 2 mM respectively. Add protease inhibitors (aprotinin and leupeptin) to make its final concentration to become 1 μg/μl, and place in an ice bath. […] On the next day, add 25 μl of hydroxyapatite suspension into each pore and mix with shaking. After incubating for 10 min, separate by centrifuge for 3 min at 2500 rpm. The precipitate is washed with 100 μl of buffer solution and separated by centrifuge twice. Add 150 μl of scintillation solution (from Perkin Elmer) into each pore, mix with shaking and count by MicroBeta counter.

[2] = molecular target: T2, mineralocorticoid receptor (MR) (Homo sapiens, UniProt P08235); assay: Binding activity on human nuclear receptor MR; conditions: n = 4
T2 sequence (P08235 1-984): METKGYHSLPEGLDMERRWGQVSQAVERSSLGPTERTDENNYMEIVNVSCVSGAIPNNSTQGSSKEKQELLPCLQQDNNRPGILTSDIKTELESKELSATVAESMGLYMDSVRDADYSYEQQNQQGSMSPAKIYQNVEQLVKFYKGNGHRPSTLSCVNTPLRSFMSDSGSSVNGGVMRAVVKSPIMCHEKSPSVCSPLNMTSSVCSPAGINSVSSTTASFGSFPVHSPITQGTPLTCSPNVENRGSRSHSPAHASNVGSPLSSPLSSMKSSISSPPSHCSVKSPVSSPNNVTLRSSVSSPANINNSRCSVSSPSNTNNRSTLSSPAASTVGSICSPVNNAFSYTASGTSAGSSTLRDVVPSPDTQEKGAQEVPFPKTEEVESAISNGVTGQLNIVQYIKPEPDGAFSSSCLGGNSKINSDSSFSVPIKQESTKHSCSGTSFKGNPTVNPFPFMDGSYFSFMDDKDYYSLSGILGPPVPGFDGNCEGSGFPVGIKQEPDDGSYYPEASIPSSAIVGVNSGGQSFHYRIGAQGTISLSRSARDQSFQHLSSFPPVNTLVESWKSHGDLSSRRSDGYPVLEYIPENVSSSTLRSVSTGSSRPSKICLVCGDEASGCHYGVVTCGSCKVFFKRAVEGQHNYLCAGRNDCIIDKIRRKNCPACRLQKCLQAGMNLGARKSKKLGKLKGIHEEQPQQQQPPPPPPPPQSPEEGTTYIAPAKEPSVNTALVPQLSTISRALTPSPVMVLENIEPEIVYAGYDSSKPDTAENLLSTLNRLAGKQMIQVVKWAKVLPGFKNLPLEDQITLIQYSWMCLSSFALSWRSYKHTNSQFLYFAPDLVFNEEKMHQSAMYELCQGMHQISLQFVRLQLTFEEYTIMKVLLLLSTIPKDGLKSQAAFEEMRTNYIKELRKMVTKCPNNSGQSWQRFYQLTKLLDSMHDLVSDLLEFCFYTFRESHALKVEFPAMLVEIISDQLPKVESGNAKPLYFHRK
Description: Buffer solution is composed of 25 mM NaPO4, 20 mM NaMoO4, 10 mM KF and 10% glycerol (pH=7.3) and stored under 4° C. Stock solution is prepared with CHAPS and DTT and stored under −20° C. […] Add 2.5 μl/hole into 96-pore plate. Take out appropriate amount of buffer solution reserve into solution to make the final concentration of CHAPS and DDT to become 0.25 mM and 2 mM respectively. Add protease inhibitors (aprotinin and leupeptin) to make its final concentration to become 1 μg/μl, and place in an ice bath. After adding human nuclear receptor GR (1:8), PR (1:100), ER (1:2000), AR (1:200) and MR (1:40) into the reaction system respectively, adequately mix suitable quantity of [^3H]-dexamethasone, [^3H]-progesterone, [^3H]-estradiol and [^3H]-DHT (from Amersham), rapidly add into 96-pore plate (100 μl/pore) and incubate overnight under 4° C. On the next day, add 25 μl of hydroxyapatite suspension into each pore and mix with shaking. After incubating for 10 min, separate by centrifuge for 3 min at 2500 rpm. The precipitate is washed with 100 μl of buffer solution and separated by centrifuge twice. Add 150 μl of scintillation solution (from Perkin Elmer) into each pore, mix with shaking and count by MicroBeta counter.

[3] = MTT toxicity on PBMC infected by HIV-1 AZT-resistant strain 018c; conditions: human
Description: Collect cells with curette, infect cells with 10^−2 AZT sensitive (018a) or AZT resistant (018c) virus strain liquid, and adsorb for 2 hours, Wash off unabsorbed virus with 1640 culture medium without serum, prepare cells infected by virus to 1×10^6/ml with culture solution, and inoculate on 96-pore culture plate, 100 μl/pore. […] Set cell control group and virus infected cell control group. Incubate under 37° C. and 5% CO2. On the fourth day (96 hours), pipette out the supernatant liquid and store under −20° C. for determination of HIV-1 P24 antigen titer and calculation of drug inhibitory action. Add MTT staining to cells for determination of cytotoxicity. Determination of cytotoxicity by MTT staining: Add 10 μl of 5 mg/ml MTT stain into each pore, continue to incubate under 37° C., 5% CO2 and saturated humidity for 4 hours. […] Determine the HIV-1 P24 antigen titer according to the operation procedure provided by the HIV-1 P24 antigen reagent kit. Compare the drug-added group with virus control group. […] Calculation method of 50% toxic concentration (CC50), 50% effective concentration (EC50) and selection index (SI): […]

CC#C[C@]1(O)CC[C@H]2[C@@H]3CCC4=CC(=O)CCC4=C3[C@@H](c3ccc(N(C)C4CCCCC4)cc3)C[C@@]21C [Cymipristone, 11β-[4-(N-methyl-N-cyclohexylamino)phenyl]-17α-(1-propynyl)-17β-hydroxyl-4,9-estradiene-3-one]
IC50 [1]: 0.45 ± 0.069 nM
IC50 [2]: > 2000 nM
CC50 at 96 h ([3]; 50% toxic concentration CC50, Experiment 1): 103 µg/mL (≈ 207 µM)
CC50 at 96 h ([3]; 50% toxic concentration CC50, Experiment 2): 104 µg/mL (≈ 210 µM)
